Data on two compounds can be found in ChEMBL document CHEMBL5329208 (RSC Med Chem, 2023).

The source made the active and inactive calls. No cut-off for these calls is given here. Some results are limits rather than exact numbers.

The target of one data set is CYP2D6 (Homo sapiens, UniProt P10635). The experiment in a line: Inhibition of CYP2D6 (unknown origin) at 10 uM using dextromethorphan as substrate incubated for 10 mins in presence of NADPH by LC-MS/MS analysis relative to control. The data set is classed as ADME. Conditions: probe dextromethorphan.
Sequence of CYP2D6 (P10635 whole entry): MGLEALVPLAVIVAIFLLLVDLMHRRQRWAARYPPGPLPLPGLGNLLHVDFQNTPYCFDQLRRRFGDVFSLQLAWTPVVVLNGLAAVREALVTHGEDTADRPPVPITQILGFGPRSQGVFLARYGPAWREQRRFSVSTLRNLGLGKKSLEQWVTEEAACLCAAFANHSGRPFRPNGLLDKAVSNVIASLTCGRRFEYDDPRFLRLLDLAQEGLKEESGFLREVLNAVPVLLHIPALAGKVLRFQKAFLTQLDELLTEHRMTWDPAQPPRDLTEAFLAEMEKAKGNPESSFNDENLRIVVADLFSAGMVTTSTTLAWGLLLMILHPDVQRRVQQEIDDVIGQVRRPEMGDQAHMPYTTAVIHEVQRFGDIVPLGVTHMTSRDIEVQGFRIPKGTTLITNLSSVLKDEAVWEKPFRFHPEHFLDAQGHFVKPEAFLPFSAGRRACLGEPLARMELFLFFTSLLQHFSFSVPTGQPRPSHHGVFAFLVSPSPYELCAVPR
Data set [1] in a line: Cytotoxicity against human HePAD38 cells assessed as reduction in cell viability by CCK-8 assay. The data set is classed as toxicity, cell-based.
For data set [2], the system named is Hepatitis B virus. The experiment in a line: Antiviral activity against HBV infected human HePAD38 cells assessed as reduction of HBV DNA level with compound replacement for every 3 days and measured on day 6 by qPCR analysis. The data set is classed as functional, organism-based. (Real-time PCR tracks product formation cycle by cycle.)
The test system of data set [3] is Hepatitis B virus. The experiment in a line: Antiviral activity against HBV infected human HePAD38 cells assessed as reduction in intracellular capsid content at 1 uM incubated for 6 days. The data set is classed as functional, organism-based. The settings on record: time 6.0 day.

The inhibition is the percentage by which the read-out fell short of the control. `C=C[C@H]1C[N@@]2CC[C@H]1C[C@@H]2[C@@H](O)c1ccnc2ccc(OC)cc12` [QUINIDINE]: the inhibition at 10 min, 10 µM on CYP2D6 came out at 95.6%.
For orientation: CC50 means the concentration that lowers cell viability or growth by half. The EC50 is the concentration giving half of the maximal effect. For `Nc1ccn([C@@H]2CS[C@H](CO)O2)c(=O)n1` [LAMIVUDINE], the CC50 in data set [1] was above 50000 nM. Further, in the data set on Hepatitis B virus [2], the concentration for a half-maximal effect (EC50) was found to be 90 nM. For the same compound, in the data set with Hepatitis B virus [3], the result was inactive.
